Laboratory results: ChEMBL document CHEMBL3244140, “Folate antagonists. 12. Antimalarial and antibacterial effects of 2,4-diamino-6-[(aralkyl and alicyclid)thio-, sulfinyl-, and sulfonyl]quinazolines” (J Med Chem, 1978)
In brackets after ≈: the same amount, converted by molar mass. Activity calls are given as the source filed them. The calls are words filed in the database; no cut-off is given here.

Key:
[1] = test system: Shigella sonnei; assay: Antibacterial activity against Shigella sonnei C-10 by Gradient plate test; format: functional, organism-based
[2] = test system: Plasmodium berghei; assay: Antiplasmodial activity against drug-sensitive Plasmodium berghei infected in mouse assessed as change in mean survival time at 320 mg/kg, sc administered as single dose 72 hrs post infection measured 60 days postinfection; format: functional; conditions: route subcutaneous
[3] = test system: Plasmodium berghei; assay: Antiplasmodial activity against drug-sensitive Plasmodium berghei infected in mouse assessed as change in mean survival time at 20 mg/kg, sc administered as single dose 72 hrs post infection; format: functional; conditions: route subcutaneous
[4] = test system: Staphylococcus aureus; assay: Antibacterial activity against Staphylococcus aureus UC-76 assessed as growth inhibition by Gradient plate test; format: functional
[5] = test system: Plasmodium berghei; assay: Antiplasmodial activity against drug-sensitive Plasmodium berghei infected in mouse assessed as change in mean survival time at 160 mg/kg, sc administered as single dose 72 hrs post infection; format: functional; conditions: route subcutaneous
[6] = test system: Plasmodium berghei; assay: Antiplasmodial activity against drug-sensitive Plasmodium berghei infected in mouse assessed as change in mean survival time at 40 mg/kg, sc administered as single dose 72 hrs post infection; format: functional; conditions: route subcutaneous
[7] = test system: Staphylococcus aureus; assay: Antibacterial activity against drug-resistant Staphylococcus aureus S18713 assessed as growth inhibition by Gradient plate test; format: functional
[8] = test system: Pseudomonas aeruginosa; assay: Antibacterial activity against Pseudomonas aeruginosa 28 by Gradient plate test; format: functional, organism-based
[9] = test system: Enterococcus faecalis; assay: Antibacterial activity against Streptococcus faecalis MGH2 assessed as growth inhibition by Gradient plate test; format: functional
[10] = test system: Plasmodium berghei; assay: Antiplasmodial activity against drug-sensitive Plasmodium berghei infected in mouse assessed as cure from infection at 640 mg/kg, sc administered as single dose 72 hrs post infection measured 60 days postinfection; format: functional, organism-based; parameters: dose 640 mg/kg
[11] = test system: Escherichia coli; assay: Antibacterial activity against Escherichia coli Vogel by Gradient plate test; format: functional, organism-based
[12] = test system: Plasmodium berghei; assay: Antiplasmodial activity against drug-sensitive Plasmodium berghei infected in mouse assessed as change in mean survival time at 80 mg/kg, sc administered as single dose 72 hrs post infection; format: functional; conditions: route subcutaneous
[13] = test system: Plasmodium berghei; assay: Antiplasmodial activity against drug-sensitive Plasmodium berghei infected in mouse assessed as change in mean survival time at 640 mg/kg, sc administered as single dose 72 hrs post infection; format: functional; conditions: route subcutaneous
[14] = test system: Plasmodium berghei; assay: Antiplasmodial activity against drug-sensitive Plasmodium berghei infected in mouse assessed as cure from infection at 320 mg/kg, sc administered as single dose 72 hrs post infection measured 60 days postinfection; format: functional, organism-based; parameters: dose 320 mg/kg
[15] = test system: Mus musculus; assay: Toxicity in drug-sensitive Plasmodium berghei infected mouse at 320 mg/kg, sc administered as single dose 72 hrs post infection measured 2 to 5 days postinfection; format: organism-based; parameters: dose 320 mg/kg, route subcutaneous; conditions: in vivo
[16] = test system: Mus musculus; assay: Toxicity in drug-sensitive Plasmodium berghei infected mouse at 640 mg/kg, sc administered as single dose 72 hrs post infection […]; format: organism-based; parameters: dose 640 mg/kg, route subcutaneous; conditions: in vivo
[17] = test system: Plasmodium berghei; assay: Antiplasmodial activity against drug-sensitive Plasmodium berghei infected in mouse assessed as cure from infection at 160 mg/kg, sc administered as single dose 72 hrs post infection measured 60 days postinfection; format: functional, organism-based; parameters: dose 160 mg/kg

Row | SMILES | Activity [1] | MSD [2] | MSD [3] | MIC [4] | MSD [5] | MSD [6] | MIC [7] | Activity [8] | MIC [9] | Activity [10] | Activity [11] | MSD [12] | MSD [13] | Activity [14] | Activity [15] | Activity [16] | Activity [17]
1 | CC(Sc1ccc2nc(N)nc(N)c2c1)c1ccc(Cl)cc1 (stereo unspecified) | inactive | 17 days | 3.7 days | < 0.25 µg/mL | 10.9 days | 5.7 days | 1 µg/mL (≈ 3.02 µM) | inactive | < 0.25 µg/mL | Active | inactive | 9.6 days |  |  |  |  | 
2 | Nc1nc(N)c2cc(SCc3ccc(Cl)cc3)ccc2n1 | inactive | 9.8 days | 0.4 days | < 0.25 µg/mL | 4.2 days | 0.8 days | < 0.25 µg/mL | inactive | < 0.25 µg/mL |  | inactive | 2.6 days | 17.3 days |  |  |  | 
3 | Nc1nc(N)c2cc([S+]([O-])Cc3ccc(Cl)cc3)ccc2n1 (stereo unspecified) | inactive | 2.9 days | 0.3 days | 25 µg/mL (≈ 75.1 µM) | 0.9 days | 0.5 days | > 25 µg/mL | inactive | > 25 µg/mL |  | inactive | 0.7 days | 5.9 days |  |  |  | 
4 | CC(=O)O.Nc1nc(N)c2cc(NCc3ccc(Cl)c(Cl)c3)ccc2n1 |  |  | 2.5 days |  | 9.9 days | 7.1 days |  |  |  | Active |  | 12.9 days |  | Active |  |  | 
5 | Nc1nc(N)c2cc(SC3CCCCC3)ccc2n1 | inactive | 12.9 days | 0.7 days | < 0.25 µg/mL | 9.1 days | 2.5 days | 10 µg/mL (≈ 36.4 µM) | inactive | 10 µg/mL (≈ 36.4 µM) | Active | inactive | 5.7 days |  |  |  |  | 
6 | Nc1nc(N)c2cc(S(=O)(=O)Cc3ccc(Cl)cc3)ccc2n1 | inactive | 0.9 days | 0.1 days | > 25 µg/mL | 0.3 days | 0.1 days | > 25 µg/mL | inactive | > 25 µg/mL |  | inactive | 0.3 days | 5.9 days |  |  |  | 
7 | Nc1nc(N)c2cc(SCCc3ccccc3)ccc2n1 |  | 17.2 days | 0.5 days |  | 4.5 days | 0.5 days |  |  |  |  |  | 0.9 days |  |  |  |  | 
8 | Nc1nc(N)c2c(Cl)c(SCc3ccc(Cl)cc3)ccc2n1 |  | 3.1 days | 0.5 days |  | 1.7 days | 0.5 days |  |  |  |  |  | 1.1 days | 7.9 days |  |  |  | 
9 | Nc1nc(N)c2cc(OCc3ccc(Cl)cc3)ccc2n1 |  | 11.2 days | 1.2 days |  | 7.2 days | 1.7 days |  |  |  |  |  | 3.6 days | 13.3 days |  |  |  | 
10 | CC1(C)N=C(N)N=C(N)N1c1ccc(Cl)cc1.Cl [CHLORCYCLOGUANIL HYDROCHLORIDE] |  |  | 7.9 days |  |  | 13.4 days |  |  |  |  |  | 21.6 days |  |  | Toxic | Toxic | Active
11 | Nc1nc(N)c2c(Cl)c([S+]([O-])Cc3ccc(Cl)cc3)ccc2n1 (stereo unspecified) | inactive |  |  | > 25 µg/mL | 0.3 days | 0.1 days | > 25 µg/mL | inactive | < 0.25 µg/mL |  | inactive |  | 0.3 days |  |  |  | 
12 | COc1cc(Cc2cnc(N)nc2N)cc(OC)c1OC [TRIMETHOPRIM] | inactive |  |  | < 0.25 µg/mL |  |  | < 0.25 µg/mL | inactive | < 0.25 µg/mL |  | inactive |  |  |  |  |  | 
13 | Nc1nc(N)c2cc(SCc3ccccc3)ccc2n1 |  | 4.9 days | 0.5 days |  | 1.1 days | 0.5 days |  |  |  |  |  | 0.9 days | 10.7 days |  |  |  | 
14 | Nc1nc(N)c2cc(SC34CC5CC(CC(C5)C3)C4)ccc2n1 | inactive | 1.1 days | 0.1 days | < 0.25 µg/mL | 0.3 days | 0.3 days | < 0.25 µg/mL | inactive | < 0.25 µg/mL |  | inactive | 0.3 days | 10.7 days |  |  |  | 
15 | Nc1nc(N)c2c(Cl)c(S(=O)(=O)Cc3ccc(Cl)cc3)ccc2n1 | inactive |  |  | 5 µg/mL (≈ 13 µM) | 0.1 days | 0.1 days | 10 µg/mL (≈ 26.1 µM) | inactive | < 0.25 µg/mL |  | inactive |  | 0.1 days |  |  |  | 
